Results published in US12606520B2, “Calpain-2 inhibitor compounds and methods of treatment” (WESTERN UNIVERSITY OF HEALTH SCIENCES, priority 2020, dated 2026).
Read-outs that look alike come from different tables or passages of the source.

How the values were obtained:
[1] = PK in mice after iv injection of liposomal NA112: plasma; assay type: in vivo; settings: for concentration at 0.0167 hr / concentration at 0.0833 hr / concentration at 0.25 hr / concentration at 0.5 hr / concentration at 1 hr / concentration at 2 hr / concentration at 4 hr / concentration at 8 hr / concentration at 16 hr / concentration at 24 hr: iv, 10 mg/kg, mice iv 10 mg/kg liposomes
Experimental: (§1) NA112 was prepared in liposomes at a concentration of 1.5 mg/ml. Mice were injected in the tail vein with 200 μl of NA112 in liposomes (corresponding to a dose of 10 mg/kg) and were sacrificed at the following time-points: 1, 5, 15, 30 min, 1, 2, 4, 8, 16 and 24 h. Blood was collected and plasma rapidly prepared by centrifugation. Brains were also collected. NA112 in plasma and in brain homogenates was assayed with LC/Ms and the sensitivity of the assay was 1 ng/ml. Experiments were performed in duplicate (A1 and A2 in Table 3). Results were averaged for preparing the figure and calculating the half-life of NA112 in plasma and in brain.
A two-compartment model was used to analyze the data from FIG. 14. This assumes that there is a rapid distribution of the drug from the plasma to various organs, followed by a slower elimination of the drug form the plasma. […] In FIG. 16, changes in NA112 plasma concentrations fitted with the 2-compartment model. The data from FIG. 14 are fitted with the 2-compartment model equation, showing the very good fit between the predicted values and the observed values.

[2] = PK in mice after iv injection of liposomal NA112: brain; assay type: in vivo; settings: mouse; for concentration at 1 min / concentration at 5 min / concentration at 0.25 h / concentration at 0.5 hr / concentration at 1 hr / concentration at 2 h / concentration at 4 h / concentration at 8 h / concentration at 16 h: iv, 10 mg/kg, mice iv 10 mg/kg liposomes; for concentration at 1 min: 0.0167 hr; for concentration at 5 min: 0.0833 hr
Experimental: as §1
Data from table 4 are plotted as a function of time. While the curve is not easily fitted with a 2-compartment model, the slower component appears to have a half-life of about 3 h.

[3] = 2-compartmental model, mice iv 10 mg/kg in liposomes
[4] = mouse, read-out: Plasma concentration A1
[5] = mouse, read-out: Plasma concentration A2
[6] = mouse, read-out: Plasma concentration Mean
[7] = read-out: Brain concentration A1
[8] = read-out: Brain concentration A2
[9] = read-out: Brain concentration Mean

With `CCC(NC(=O)[C@H](CC(C)C)NC(=O)NCc1ccccc1)C(=O)C(=O)NCc1cc(OC)cc(OC)c1` (mixture of isomers) [NA112, (2S)-2-(3-benzylureido)-N-(1-((3,5-dimethoxybenzyl)amino)-1,2-dioxopentan-3-yl)-4-methylpentanamide] the A [1, 3] was 28944.68 ng/mL, the B [1, 3] was 42.70 ng/mL and the T½α [1, 3] was 0.23 h. For the same molecule, the T½β [1, 3] was 7.80 h, the α [1, 3] was 3.01 h⁻¹ and the β [1, 3] was 0.09 h⁻¹. The half-life ([1]; mouse, 2-compartment model, mice iv 10 mg/kg in liposomes) was 7.8 h, the AUC from zero to infinity ([1]; mouse, 2-compartmental model, mice iv 10 mg/kg in liposomes, read-out: AUC0-00) was 17000 ng·h/mL and the concentration at 0.0167 hr [1, 4] was 45300 ng/mL. For the same molecule, the concentration at 0.0167 hr [1, 5] was 63500 ng/mL, the concentration at 0.0167 hr [1, 6] was 54400 ng/mL and the concentration at 0.0833 hr [1, 4] was 116000 ng/mL. For the same molecule, the concentration at 0.0833 hr [1, 5] was 69100 ng/mL, the concentration at 0.0833 hr [1, 6] was 92300 ng/mL and the concentration at 0.25 hr [1, 4] was 2120 ng/mL. The concentration at 0.25 hr [1, 5] was 939 ng/mL, the concentration at 0.25 hr [1, 6] was 1530 ng/mL and the concentration at 0.5 hr [1, 4] was 6760 ng/mL. It also gave a concentration at 0.5 hr [1, 5] of 432 ng/mL, a concentration at 0.5 hr [1, 6] of 3590 ng/mL and a concentration at 1 hr [1, 4] of 5550 ng/mL. The concentration at 1 hr [1, 5] was 390 ng/mL, the concentration at 1 hr [1, 6] was 2970 ng/mL and the concentration at 2 hr [1, 4] was 107 ng/mL. For the same molecule, the concentration at 2 hr [1, 5] was 84 ng/mL, the concentration at 2 hr [1, 6] was 95.5 ng/mL and the concentration at 4 hr [1, 4] was 34.6 ng/mL. For the same molecule, the concentration at 4 hr [1, 5] was 30 ng/mL, the concentration at 4 hr [1, 6] was 32.3 ng/mL and the concentration at 8 hr [1, 4] was 17.4 ng/mL. For the same molecule, the concentration at 8 hr [1, 5] was 20.6 ng/mL, the concentration at 8 hr [1, 6] was 19 ng/mL and the concentration at 16 hr [1, 4] was 10.8 ng/mL. The concentration at 16 hr [1, 5] was 9.79 ng/mL, the concentration at 16 hr [1, 6] was 10.3 ng/mL and the concentration at 24 hr [1, 4] was 5.63 ng/mL. The concentration at 24 hr [1, 5] was 4.67 ng/mL, the concentration at 24 hr [1, 6] was 5.15 ng/mL and the concentration at 1 min [2, 7] was 520 ng/mL. It also gave a concentration at 1 min [2, 8] of 305 ng/mL, a concentration at 1 min [2, 9] of 412 ng/mL and a concentration at 5 min [2, 7] of 168 ng/mL. The concentration at 5 min [2, 8] was 129 ng/mL, the concentration at 5 min [2, 9] was 149 ng/mL and the concentration at 0.25 h [2, 7] was 106 ng/mL. The concentration at 0.25 h [2, 8] was 62.3 ng/mL, the concentration at 0.25 h [2, 9] was 84.4 ng/mL and the concentration at 0.5 hr [2, 7] was 60.6 ng/mL. For the same molecule, the concentration at 0.5 hr [2, 8] was 63.4 ng/mL, the concentration at 0.5 hr [2, 9] was 62 ng/mL and the concentration at 1 hr [2, 7] was 45.6 ng/mL. It also gave a concentration at 1 hr [2, 8] of 48.4 ng/mL, a concentration at 1 hr [2, 9] of 47 ng/mL and a concentration at 2 h [2, 7] of 25.9 ng/mL. For the same molecule, the concentration at 2 h [2, 8] was 30.9 ng/mL, the concentration at 2 h [2, 9] was 28.4 ng/mL and the concentration at 4 h [2, 7] was 14 ng/mL. The concentration at 4 h [2, 8] was 21.3 ng/mL, the concentration at 4 h [2, 9] was 17.6 ng/mL and the concentration at 8 h [2, 7] was 19.5 ng/mL. It also gave a concentration at 8 h [2, 8] of 15.4 ng/mL, a concentration at 8 h [2, 9] of 17.4 ng/mL and a concentration at 16 h [2, 7] of 6.65 ng/mL. The concentration at 16 h [2, 8] was 9.41 ng/mL, the concentration at 16 h [2, 9] was 8.03 ng/mL and the half-life ([2]; mice, iv 10 mg/kg in liposomes, read-out: Half-life of slower component in brain (converted)) was roughly 3 h.
